The target in assay [1] is T1, BRD4 (BDI_K57-E168) (Homo sapiens, UniProt O60885).
T1 construct: BD1: amino acids K57-E168; made in house
In words: TR-FRET bromodomain binding assay, first bromodomain of BRD4. Conditions: 100 nM probe. Summed up: (§1)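 Compound dilutions are mixed with His-tagged BRD4 bromodomain (8 nM), europium anti-His antibody (1 nM) and Alexa647 probe (BDI 100 nM; BDII 30 nM) in pH 6.0 buffer containing 2% DMSO. After equilibrating one hour at room temperature, TR-FRET is measured; percent inhibition is fitted to obtain IC50, from which Ki is calculated.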

For assay [2], the target named is T2, BRD4 (BDII_E352-M457) (Homo sapiens, UniProt O60885).
T2 construct: protocol; made in house
Description: TR-FRET bromodomain binding assay, second bromodomain of BRD4. As to conditions: 30 nM probe. In short, it runs like this: as §1

The subject of assay [3] is breast cancer cell line MX-1. In words: MX-1 cell line proliferation assay. It counts as cell-based. Conditions: MX-1 cells, 3-day proliferation assay, Cell Titer Glo; read-out: Cellular proliferation: EC50. As for the experimental part: MX-1 Cell Line Proliferation Assay
The impact of compounds of the Examples on cancer cell proliferation was determined using the breast cancer cell line MX-1 (ATCC) in a 3-day proliferation assay and the data are reported in Table 1. MX-1 cells were maintained in RPMI 1640 medium (Sigma) supplemented with 10% FBS at 37 C.° and an atmosphere of 5% CO2. For compound testing, MX-1 cells were plated in 96-well black bottom plates at a density of 5000 cells/well in 90 μL of culture media and incubated at 37° overnight to allow cell adhesion and spreading. Compound dilution series were prepared in DMSO via a 3-fold serial dilution from 3 mM to 0.1 μM. The DMSO dilution series were then diluted 1:100 in phosphate buffered saline, and 10 μL of the resulted solution were added to the appropriate wells of the MX-1 cell plate. The final compound concentrations in the wells were 3, 1, 0.3, 0.1, 0.03, 0.01, 0.003, 0.001, 0.0003, and 0.0001 μM or 1, 0.3, 0.1, 0.03, 0.01, 0.003, 0.001, 0.0003, 0.0001, and 0.00003 μM.
Luminescence readings from the Cell Titer Glo assay were normalized to the DMSO treated cells and analyzed using the GraphPad Prism software with sigmoidal curve fitting to obtain EC50s. The minimum significant ratio (MSR) was determined to evaluate assay reproducibility (Eastwood et al., (2006) J Biomol Screen, 11: 253-261). The overall MSR was determined to be 2.1 and a moving MSR (last six run MSR overtime) has been <2.

Setting [4] is: TR-FRET assay protocol G (compound 0.92 μM-15 pM).
[5] abbreviates: TR-FRET assay protocol E (compound 9.19 μM-150 pM).

Experimental findings from US10035800B2 (AbbVie Inc., priority 2013, dated 2018) are described below.

As for `CCNC(=O)c1[nH]c2c(=O)n(C)cc3c2c1CN(c1ccc(C#N)cc1)c1ccc(CS(C)(=O)=O)cc1-3` [Example 203, 4-(4-cyanophenyl)-N-ethyl-10-methyl-7-((methylsulfonyl)methyl)-11-oxo-3,4,10,11-tetrahydro-1H-1,4,10-triazadibenzo[cd,f]azulene-2-carboxamide], the values for the Ki in assay [1] (setting [4]) and in assay [2] (setting [4]) were 0.99 nM and 0.71 nM, respectively. For the same molecule, the EC50 in assay [3] came to 5.43 nM.

With `CC(C)CC1Nc2ccc(CS(C)(=O)=O)cc2-c2cn(C)c(=O)c3[nH]cc1c23` (racemic) [Example 19, 3-isobutyl-10-methyl-7-((methylsulfonyl)methyl)-3,4-dihydro-1H-1,4,10-triazadibenzo[cd,f]azulen-11(10H)-one], the Ki in assay [1] (setting [5]) came to 246 nM; in assay [2] (setting [5]) it was 43.8 nM. Also, in assay [3], the EC50 turned out to be 370 nM.

Regarding `Cn1cc2c3c(c[nH]c3c1=O)CN(C(=O)NC1CCCC1)c1ccc(CS(C)(=O)=O)cc1-2` [Example 44, N-cyclopentyl-10-methyl-7-((methylsulfonyl)methyl)-11-oxo-10,11-dihydro-1H-1,4,10-triazadibenzo[cd,f]azulene-4(3H)-carboxamide], the results for the Ki in assay [1] (setting [4]) and in assay [2] (setting [4]) were 2.61 nM and 2.47 nM, respectively. Further, the EC50 in assay [3] came to 48.7 nM.

On to `Cc1cnc2c(c1)-c1cn(C)c(=O)c3[nH]cc(c13)C(c1ccccc1)N2c1ccc(F)cc1` (stereo not drawn) [Example 33, 4-(4-fluorophenyl)-7,10-dimethyl-3-phenyl-3,4-dihydro-1H-1,4,5,10-tetraazadibenzo[cd,f]azulen-11(10H)-one], for which the results for the Ki in assay [1] (setting [4]) and in assay [2] (setting [4]) were 38.3 nM and 22.8 nM, respectively. Besides, in assay [3], the EC50 amounted to 495 nM.

`Cn1cc2c3c(c[nH]c3c1=O)CN(C(=O)CC(C)(C)C)c1c(F)cc(F)cc1-2` [Example 169, 4-(3,3-dimethylbutanoyl)-5,7-difluoro-10-methyl-3,4-dihydro-1H-1,4,10-triazadibenzo[cd,f]azulen-11(10H)-one]: the Ki came out at 12.4 nM in assay [1] (setting [4]) and 4.67 nM in assay [2] (setting [4]). In addition, the EC50 in assay [3] is 69.9 nM.

On to `COC(=O)CCC1c2c[nH]c3c(=O)n(C)cc(c23)-c2cc(CS(C)(=O)=O)ccc2N1CC1CC1` (stereo not drawn) [Example 14, methyl 3-(4-(cyclopropylmethyl)-10-methyl-7-((methylsulfonyl)methyl)-11-oxo-3,4,10,11-tetrahydro-1H-1,4,10-triazadibenzo[cd,f]azulen-3-yl)propanoate], for which the Ki in assay [1] (setting [5]) came to 6.9 nM; in assay [2] (setting [5]), 0.882 nM. Moreover, the EC50 in assay [3] was 14.6 nM.

As for `CCOC(=O)c1[nH]c2c(=O)n(C)cc3c2c1CN(c1ccc(F)cc1F)c1ccc(CS(C)(=O)=O)cc1-3` [Example 208, ethyl 4-(2,4-difluorophenyl)-10-methyl-7-((methylsulfonyl)methyl)-11-oxo-3,4,10,11-tetrahydro-1H-1,4,10-triazadibenzo[cd,f]azulene-2-carboxylate], the Ki worked out at 3.41 nM in assay [1] (setting [4]) and 1.15 nM in assay [2] (setting [4]). In addition, in assay [3], the EC50 is 10.7 nM.

For `CN(NC(=O)CCC1c2c[nH]c3c(=O)n(C)cc(c23)-c2cc(CS(C)(=O)=O)ccc2N1c1ccc(F)cc1F)c1ccccc1` (stereo not drawn) [Example 122, 3-(4-(2,4-difluorophenyl)-10-methyl-7-((methylsulfonyl)methyl)-11-oxo-3,4,10,11-tetrahydro-1H-1,4,10-triazadibenzo[cd,f]azulen-3-yl)-N′-methyl-N′-phenylpropanehydrazide], the Ki came to 10.8 nM in assay [1] (setting [4]) and 0.922 nM in assay [2] (setting [4]). The EC50 in assay [3] was more than 1000 nM.

As to `Cn1cc2c3c(c(CN4CCOCC4)[nH]c3c1=O)CN(c1ccc(Cl)cc1)c1ccc(CS(C)(=O)=O)cc1-2` [Example 193, 4-(4-chlorophenyl)-10-methyl-7-((methylsulfonyl)methyl)-2-(morpholinomethyl)-3,4-dihydro-1H-1,4,10-triazadibenzo[cd,f]azulen-11(10H)-one], the Ki was found to be 1.85 nM in assay [1] (setting [4]) and 12.4 nM in assay [2] (setting [4]). The EC50 in assay [3] was found to be 31.7 nM.

For the molecule `COc1cc(N2Cc3c[nH]c4c(=O)n(C)cc(c34)-c3cc(CS(C)(=O)=O)ccc32)cc(OC)c1OC` [Example 211, 10-methyl-7-((methylsulfonyl)methyl)-4-(3,4,5-trimethoxyphenyl)-3,4-dihydro-1H-1,4,10-triazadibenzo[cd,f]azulen-11(10H)-one], the Ki in assay [1] (setting [4]) turned out to be 5.67 nM; in assay [2] (setting [4]), 7.47 nM. Moreover, the EC50 in assay [3] came to 118 nM.

For the molecule `Cn1cc2c3c(c[nH]c3c1=O)CN(CC1CCNC1)c1ccc(CS(C)(=O)=O)cc1-2` (stereo not drawn) [Example 36], the Ki in assay [1] (setting [4]) was found to be 5.05 nM; in assay [2] (setting [4]), 6.25 nM. Moreover, the EC50 in assay [3] is more than 1000 nM.

As for `Cn1cc2c3c(c[nH]c3c1=O)CN(c1ccc(C(F)(F)F)cn1)c1ccc(CS(C)(=O)=O)cc1-2` [Example 253, 10-methyl-7-((methylsulfonyl)methyl)-4-(5-(trifluoromethyl)pyridin-2-yl)-3,4-dihydro-1H-1,4,10-triazadibenzo[cd,f]azulen-11(10H)-one], the Ki in assay [1] (setting [4]) was found to be 0.7 nM; in assay [2] (setting [4]) it was 1.18 nM. For the same molecule, the EC50 in assay [3] turned out to be 1.3 nM.

With `Cn1cc2c3c(c[nH]c3c1=O)C(CCN1C(=O)c3ccccc3C1=O)N(c1ccc(F)cc1F)c1ccc(CS(C)(=O)=O)cc1-2` (racemic) [Example 227, 2-(2-(4-(2,4-difluorophenyl)-10-methyl-7-((methylsulfonyl)methyl)-11-oxo-3,4,10,11-tetrahydro-1H-1,4,10-triazadibenzo[cd,f]azulen-3-yl)ethyl)isoindoline-1,3-dione], the Ki in assay [1] (setting [4]) came to 7.94 nM; in assay [2] (setting [4]), 1.18 nM. Moreover, the EC50 in assay [3] came out at 134 nM.

As to `Cn1cc2c3c(c[nH]c3c1=O)C(CCC(=O)N1CCNCC1)N(c1ccc(F)cc1F)c1ccc(CS(C)(=O)=O)cc1-2` (stereo not drawn) [Example 131, 4-(2,4-difluorophenyl)-10-methyl-7-((methylsulfonyl)methyl)-3-(3-oxo-3-(piperazin-1-yl)propyl)-3,4-dihydro-1H-1,4,10-triazadibenzo[cd,f]azulen-11(10H)-one], the Ki was 10.7 nM in assay [1] (setting [4]) and 2.35 nM in assay [2] (setting [4]). In addition, the EC50 in assay [3] was more than 1000 nM.

As to `Cn1cc2c3c(c[nH]c3c1=O)C(c1ccccc1)N(c1ccc(F)cc1F)c1ccc(CS(C)(=O)=O)cc1-2` (stereo not drawn) [Example 214, 4-(2,4-difluorophenyl)-10-methyl-7-((methylsulfonyl)methyl)-3-phenyl-3,4-dihydro-1H-1,4,10-triazadibenzo[cd,f]azulen-11(10H)-one], the Ki in assay [1] (setting [4]) is 40.8 nM; in assay [2] (setting [4]), 3.25 nM. Moreover, the EC50 in assay [3] is 431 nM.

Turning to `Cn1cc2c3c(c[nH]c3c1=O)CN(C(=O)Oc1ccc(F)cc1)c1ccc(CS(C)(=O)=O)cc1-2` [Example 94, 4-fluorophenyl 10-methyl-7-((methylsulfonyl)methyl)-11-oxo-10,11-dihydro-1H-1,4,10-triazadibenzo[cd,f]azulene-4(3H)-carboxylate], the inhibitory constant (Ki) in assay [1] (setting [4]) came to 6.03 nM; in assay [2] (setting [4]), 3.49 nM. Further, in assay [3], the EC50 stood at 6.02 nM.

Take `Cn1cc2c3c(c[nH]c3c1=O)C(CCc1ccccc1)Nc1ccc(CS(C)(=O)=O)cc1-2` (stereo not drawn) [Example 18, 10-methyl-7-((methylsulfonyl)methyl)-3-phenethyl-3,4-dihydro-1H-1,4,10-triazadibenzo[cd,f]azulen-11(10H)-one]: the inhibition constant Ki in assay [1] (setting [5]) turned out to be 145 nM; in assay [2] (setting [5]) it was 24.1 nM. Moreover, the EC50 in assay [3] came out at 343 nM.

For the molecule `Cn1cc2c3c(c[nH]c3c1=O)C(CCC(O)CO)N(c1ccc(F)cc1F)c1ccc(CS(C)(=O)=O)cc1-2` (stereo not drawn) [Example 140, 4-(2,4-difluorophenyl)-3-(3,4-dihydroxybutyl)-10-methyl-7-((methylsulfonyl)methyl)-3,4-dihydro-1H-1,4,10-triazadibenzo[cd,f]azulen-11(10H)-one], the Ki in assay [1] (setting [4]) worked out at 9.99 nM; in assay [2] (setting [4]), 2.24 nM. Moreover, in assay [3], the EC50 was found to be 936 nM.

Consider `COCC(C)N1Cc2c[nH]c3c(=O)n(C)cc(c23)-c2cc(CS(C)(=O)=O)ccc21` (stereo not drawn) [Example 185, 4-(1-methoxypropan-2-yl)-10-methyl-7-((methylsulfonyl)methyl)-3,4-dihydro-1H-1,4,10-triazadibenzo[cd,f]azulen-11(10H)-one], for which the Ki in assay [1] (setting [4]) came to 4.19 nM; in assay [2] (setting [4]), 10.2 nM. Further, in assay [3], the EC50 came out at 28.3 nM.
